Measurements reported in paper PMC5509440 (Bioorganic & medicinal chemistry, 2017).
Entries after “also recorded” stand apart in the source; their conditions may differ.

What was measured:
[1] = tested on: T. b. brucei Lister 427 cells; experiment: T. brucei cell viability analysis; type: cell-based; settings: Trypanosoma brucei, 48 h, read-out: IC50 against T. brucei cells, bloodstream form T. b. brucei Lister 427, 48 hrs, MTS
[2] = biological target: tubulin polymerization in T. brucei cells (Trypanosoma brucei rhodesiense, UniProt P04106+P04107); type: cell-based; settings: different doses, 7 hrs, western blot with TAT-1 antibody
Sequence of tubulin polymerization in T. brucei cells (P04106 whole entry): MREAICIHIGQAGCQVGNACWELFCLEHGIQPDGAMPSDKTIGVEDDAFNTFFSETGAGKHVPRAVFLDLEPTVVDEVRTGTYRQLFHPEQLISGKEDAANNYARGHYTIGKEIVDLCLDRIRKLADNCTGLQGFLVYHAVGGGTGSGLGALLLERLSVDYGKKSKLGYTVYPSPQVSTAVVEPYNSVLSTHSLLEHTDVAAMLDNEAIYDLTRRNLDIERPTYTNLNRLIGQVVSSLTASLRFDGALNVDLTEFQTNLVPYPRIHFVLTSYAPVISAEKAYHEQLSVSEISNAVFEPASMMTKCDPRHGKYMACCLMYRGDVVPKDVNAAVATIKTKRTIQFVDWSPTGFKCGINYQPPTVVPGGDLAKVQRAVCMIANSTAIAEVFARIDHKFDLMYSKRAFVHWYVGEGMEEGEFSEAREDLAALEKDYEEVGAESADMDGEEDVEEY
Sequence of tubulin polymerization in T. brucei cells (P04107 whole entry): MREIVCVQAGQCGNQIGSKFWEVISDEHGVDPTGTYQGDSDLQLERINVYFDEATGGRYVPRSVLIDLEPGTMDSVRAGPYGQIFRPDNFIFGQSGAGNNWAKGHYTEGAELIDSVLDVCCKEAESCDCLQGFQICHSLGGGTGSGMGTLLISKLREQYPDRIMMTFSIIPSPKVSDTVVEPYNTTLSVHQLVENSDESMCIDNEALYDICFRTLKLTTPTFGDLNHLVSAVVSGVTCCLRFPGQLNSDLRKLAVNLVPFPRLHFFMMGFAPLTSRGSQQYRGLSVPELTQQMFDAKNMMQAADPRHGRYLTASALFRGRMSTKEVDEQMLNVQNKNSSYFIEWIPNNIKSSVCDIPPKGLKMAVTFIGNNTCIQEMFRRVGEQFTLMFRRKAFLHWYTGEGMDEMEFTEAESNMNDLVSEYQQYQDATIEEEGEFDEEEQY

| SMILES | IC50 [1] [µM] | amount of polymerized tubulin in T. brucei cells [2] |
| --- | --- | --- |
| CN(c1ccc(NC(=O)c2cc(C(F)(F)F)cc(C(F)(F)F)c2)cc1OCc1ccc(C(F)(F)F)cc1)S(=O)(=O)Cc1ccccc1 [Compound 11, N-(4-(N-methyl-1-phenylmethylsulfonamido)-3-((4-(trifluoromethyl)benzyl)oxy)phenyl)-3,5-bis(trifluor omethyl)benzamide] | < 5 | – |
| CN(c1ccc(NC(=O)c2ccc(C#N)cc2)cc1OCc1ccc(C(F)(F)F)cc1)S(=O)(=O)Cc1ccccc1 [Compound 15, 4-cyano-N-(4-(N-methyl-1-phenylmethylsulfonamido)-3-((4-(trifluoromethyl)benzyl)oxy)phenyl)benzamide] | – | decreased the amount of polymerized tubulin in a dose-dependent manner; also recorded: level of polymerized tubulin is significantly decreased |
